The results in this text go back to a melting point compilation (Tetko et al.; mined from patent text by program, amines drawn as free bases though some values may be those of a salt).

As a reminder, the melting point is the temperature, or range, at which the solid turns liquid.

The compound `[N-]=[N+]=NS(=O)(=O)c1ccc(C(=O)Cl)cc1` yielded a melting point of 68 °C.

In turn, `CCOC(=O)CS(=O)(=O)c1cc(NS(=O)(=O)c2cccs2)c2ccccc2c1O` gave a melting point of 154 to 156 °C.

`CCCc1nc2c(N)nc3cc(-c4cccc(C(=O)N5CCCC5)c4)ccc3c2s1` registered a melting point of 177 to 180 °C.

Regarding `COc1ccc(-c2nnc(C(=O)N3CC(Oc4ccc(CN5CCC(C)(CO)CC5)cc4)C3)o2)cc1`, the melting point stood at 102 °C.

With `CS(=O)(=O)c1ccc(-c2nnsc2-c2ccccc2)cc1`, the melting point fell in the range of 154 to 155 °C.

With `CC(C)(C)OC(=O)C[C@@H](NS(=O)(=O)c1ccc2c(Cl)cnc(Cl)c2c1)C(=O)OC(C)(C)C`, the melting point was in the range of 106 to 110 °C.

For the compound `CC(C)c1ccc(C(=O)C2CCNCC2)cc1`, the melting point lay within 55 to 57 °C.

`CCCc1c(OCc2cc(Br)c(C(=O)O)cc2OC)ccc(C(C)=O)c1O` gave a melting point of 237 to 238 °C.

In turn, `CNC(=NCCCSCn1cncc1C)NC#N` showed a melting point of 156 to 158 °C.

Consider `COn1cnc2c(N)nc3ccccc3c21`, for which the melting point fell in the range of 238 to 240 °C.

As to `CCC1=C(C(=O)OC)C(c2cccc([N+](=O)[O-])c2)c2c(nc(N3CCOCC3)nc2N2CCOCC2)N1` (stereo unspecified), the melting point was determined as 225 °C.

For `COc1ccc(-c2ccc(C(C)=NOCCOc3ccc(CC4SC(=O)NC4=O)cc3)cc2)c(OC)c1` (stereo unspecified), the melting point lay within 186 to 188 °C.

In turn, `CC(=O)c1ccccc1C(O)=S` yielded a melting point of 127 to 129 °C.

Compound `NNC(=O)Cc1ccccc1S(N)(=O)=O` displayed a melting point of 116 to 125 °C.

Take `Cc1ccc(N(c2ccc(C)cc2)c2ccc(-c3ccc(N(c4ccc(C)cc4)c4ccc(C)cc4)cc3)cc2)cc1`: the melting point is 215 to 216 °C.

As for `Cc1[nH]c(C)c(-c2ccc(Oc3ccc(OC(F)(F)F)cc3)cc2)c(=O)c1Br`, the melting point fell in the range of 284 to 286 °C.

With `Cc1nn(C)c(OC(=O)CCl)c1C(=O)c1ccc(Cl)cc1Cl`, the melting point was in the range of 120 to 122 °C.

In the case of `CNC(=O)[C@H](CO[Si](C)(C)C(C)(C)C)NC(=O)Nc1n[nH]c(=S)s1`, the melting point lay within 213 to 214 °C.

For the compound `COC(=O)c1ccc(Cn2c(C)nc3ccccc32)c2ccccc12`, the melting point lay in the range of 207 to 208 °C.

`CCC(C(=O)N(C)C)n1ccc(-c2ccccc2C)n1` (stereo unspecified): the melting point fell in the range of 48 to 51 °C.

For the compound `COc1ccc2c(Nc3ccc4[nH]ccc4c3)c(C#N)cnc2c1`, the melting point was more than 250 °C.

Take `O=C(NCCO)c1cccc(-c2cccc3nn(Cc4ccc(F)c(F)c4)cc23)c1`: the melting point fell in the range of 116 to 117 °C.

`Cc1cc(N2CCOCC2)c2cccc(OCc3c(Cl)ccc(-n4cccc4CNC(=O)C=Cc4ccc(C(=O)O)cc4)c3Cl)c2n1` yielded a melting point of 174 to 180 °C.

`Nc1ccc(-n2cc(C(=O)O)c(=O)cc2-c2ccc3ccccc3c2)cc1` displayed a melting point of 148 to 151 °C.

In turn, `CC(C)(C)OC(=O)NCCCCCCNC(=O)c1cccc(-c2nc(=O)c3ccccc3s2)n1` had a melting point of 145 °C.

As to `CCOC(=O)C(C)Oc1ccc2c(-c3ccc(Cl)cc3)noc2c1` (stereo unspecified), the melting point stood at 95 °C.

Compound `Cn1cc(C#N)cc1C=O` yielded a melting point of 125 to 126 °C.

`CCOC(=O)c1ccc2c(c1)c(C#Cc1ccccc1)nn2CCC#N` gave a melting point of 90 to 94 °C.

Consider `COc1cccc(Cl)c1C1Cc2c(ccn2C)C2C(=O)NC(=O)C12` (stereo unspecified), for which the melting point is 186 to 188 °C.

`Nc1ccc2c(c1)NC(=O)c1cscc1N2` showed a melting point of 212 to 215 °C.

On to `CC(C)(O)CNc1c([N+](=O)[O-])cnc2cc(Br)cnc12`, for which the melting point was 189 to 190 °C.

Compound `COc1ccc2c(c1)C(N(CC(=O)O)C(=O)C(C)CSC(C)=O)CC2` (stereo unspecified) displayed a melting point of 106 to 110 °C.

`CCCCOc1nsnc1S(C)(=O)=O` gave a melting point of 39 to 40 °C.

For `CC(C)(NC=O)c1cc(Cl)cc(Cl)c1`, the melting point lay in the range of 115 to 117 °C.

As for `CCCCCCCCc1ccc(N(c2ccc(CCCCCCCC)cc2)C2(c3ccc(N(CC)CC)cc3)OC(=O)c3nccnc32)cc1` (stereo unspecified), the melting point is 180 to 181 °C.

Turning to `O=c1c2ccc3[nH]ccc3c2ccn1Cc1ccc(F)cc1`, the melting point fell in the range of 171 to 173 °C.

`Cc1cc(-c2ccc(C(F)(F)F)cc2)cn2c(-c3nc(-c4ccc(N)nc4)no3)cnc12` showed a melting point of 257 °C.

`COc1cc(N2CCN(C[C@H](C)O)CC2)ccc1Nc1ncc2ccc(-c3ccccc3OC)n2n1` gave a melting point of 76 to 85 °C.

As to `COc1ccc(CCNC(=O)[C@@H](N)C(C)C)cc1OC`, the melting point was in the range of 52 to 54 °C.

As to `COc1cccc(CN2C(=O)C3CCCC3N(C(=O)CN3C(=O)c4ccccc4C3=O)c3ccccc32)c1` (stereo unspecified), the melting point lay within 193 to 194 °C.

`CCCCCCCCCCCC(=O)Oc1ccc2[nH]c3c(C)c4ccncc4c(C)c3c2c1` yielded a melting point of 188 to 190 °C.

The compound `O=C1c2ccc([N+](=O)[O-])cc2COc2cc(-n3cnnn3)ccc21` had a melting point of 123 to 126 °C.

`COc1ccc(O)c(NS(C)(=O)=O)c1` had a melting point of 135 to 136 °C.

On to `O=C(NCCc1ccccc1)c1ccccc1-c1ccccc1CNS(=O)(=O)c1cccc([N+](=O)[O-])c1`, for which the melting point turned out to be 145 °C.

`CCCCc1nc(C(=O)C(C)(C)C)c(C#N)n1Cc1ccc(-c2ccccc2-c2nnnn2C(c2ccccc2)(c2ccccc2)c2ccccc2)cc1` registered a melting point of 103 to 105 °C.

Regarding `Cc1ccc(-c2c(NS(=O)(=O)c3ccc(C(C)(C)C)cc3)ncnc2OCCOc2ccc(N(C)C)cc2)cc1`, the melting point fell in the range of 142 to 145 °C.

For `Cc1ccccc1C(F)(F)C(F)(F)c1ccccc1C`, the melting point was 71.5 to 73.5 °C.

`CCCCOc1c(CNC(=O)OC(C)(C)C)n(CC(C)(C)C)c(=O)c2ccc(F)cc12` yielded a melting point of 168 to 169 °C.

On to `CCNC(=O)NCc1ccc(/C=C/C(c2cc(Cl)cc(Cl)c2)C(F)(F)F)cc1Cl` (stereo unspecified), for which the melting point was in the range of 177 to 178 °C.

`O=C1CCC2=C1C(c1cccc(Br)c1)C1=C(CCS1)N2` (stereo unspecified) yielded a melting point of 246 °C.

The compound `CC(=O)N1CCc2nc3cccc(N)c3c(C)c2CC1` returned a melting point of 150 °C.

`CCOC1=Nc2nc(C(C)(C)C)[nH]c2C2=N[C@H](Cc3ccccc3)CN12` displayed a melting point of 220 to 222 °C.

Take `CCOCCCn1ccc(=O)c(OC(=O)NCC(=O)OCC)c1C`: the melting point was in the range of 84 to 85 °C.

`COc1ccc(C2CCc3ccccc3C2O)cc1` (stereo unspecified) had a melting point of 89 to 90.5 °C.

For `CO[C@@H](C)[C@](C)(OC)c1cc(F)cc(OCc2ccc3ccccc3c2)c1` (racemic), the melting point was in the range of 58 to 59 °C.

In turn, `O=c1cc(-c2ccc(OCCOc3ccc(-c4cc(=O)c5c(O)cc(O)cc5o4)cc3)cc2)oc2cc(O)cc(O)c12` showed a melting point of 352 to 355 °C.

For `COCc1ccc2c(c1S(=O)(=O)NC(=O)Nc1nc(C)cc(OC)n1)S(=O)(=O)C(C)C2` (stereo unspecified), the melting point lay in the range of 215 to 216 °C.

`CC(C)(C)c1cc(-c2csc(CNc3ccccc3)n2)cc(C(C)(C)C)c1O` came in with a melting point of 147 to 148 °C.

`CC(C)(C)c1ccc(/C=C/C(=O)Nc2ccc3c(ccn3CCO)c2)cc1` had a melting point of 182 °C.

Turning to `COc1ccc(S(=O)(=O)C(CC(=O)NO)Cc2ccccc2)cc1` (stereo unspecified), the melting point was 118 to 120 °C.

`COc1cccc(CCCc2c(CC#N)ccc(OC)c2OC)c1`: the melting point is 78 to 79 °C.

`C=CS(=O)(=O)NC(=O)Nc1nc(C)cc(C)n1` showed a melting point of 131 to 133 °C.

`OCCN1CCC(Nc2nc3cncnc3n2Cc2ccc(F)cc2)CC1` had a melting point of 159 °C.

For `CCc1cc2c(s1)N(C(=O)N(C)C)CCN=C2c1ccccc1`, the melting point was in the range of 237 to 238 °C.

`NS(=O)(=O)c1cc(C(=O)OCC(=O)N2CCC(CO[N+](=O)[O-])CC2)c(NCc2ccco2)cc1Cl` came in with a melting point of 115 to 117 °C.

`CCc1noc(-c2ncc3[nH]c4ccccc4c3n2)n1` showed a melting point of 250 to 257 °C.

`COc1cc(Cn2cc(CCC(=O)O)c(-c3ccccc3)c2)cc(OCc2csc(-c3cnccn3)n2)c1` yielded a melting point of 111 to 112 °C.

The compound `CCC(CC)N(Cc1ccc(C(=O)OC)cc1)S(=O)(=O)c1ccc(C)cc1` gave a melting point of 106 to 108 °C.

For `CS(=O)(=O)NCc1ccc2[nH]cc(CC#N)c2c1`, the melting point lay in the range of 106 to 109 °C.

In turn, `COc1cccc(C2(O)CCC(=O)CC2)c1` registered a melting point of 105 to 108 °C.

`CCc1cc(O)cc(=O)o1` showed a melting point of 106 to 108 °C.

For the compound `COC(=O)c1nc(NC(=O)c2ccccn2)ccc1Oc1nc(OC)cc(OC)n1`, the melting point was 146 to 150 °C.

`O=Cc1cccc(-c2cccc3ccccc23)n1` displayed a melting point of 65 to 66 °C.

With `CCCc1c(OCCCCCC(=O)c2ccc3cc(OC)c(OC)cc3c2)ccc(C(=O)O)c1O`, the melting point lay in the range of 144 to 146 °C.

`CCOC(=O)c1cnc2c(C(=O)Nc3cc4cccnc4cc3OC)csc2c1` had a melting point of 265 to 270 °C.

For the compound `CCOC(=O)c1c2n(c3ccc(F)cc3c1=O)CCS2`, the melting point lay in the range of 225 to 226 °C.

The compound `C=Cc1c(F)c(F)cc(C(=O)O)c1F` registered a melting point of 108 to 110 °C.

`CC(=O)N(C)c1nc(-c2ccccc2)c(-c2ccc(=O)n(C(C)C)n2)s1` registered a melting point of 165 to 167 °C.

The compound `CCOC(=O)C(=CNc1coc2ccccc2c1=O)C(=O)OCC` had a melting point of 155 to 157 °C.

For the compound `O=C1CN(Cc2ccccc2)CC2=C1N=C1N=C(N3CCOCC3)NN1C2`, the melting point lay within 291 to 293 °C.

Compound `CCOC(=O)c1ncn2c1CN=C(c1ccccc1Cl)c1cc([N+](=O)[O-])ccc1-2` registered a melting point of 250 to 252 °C.

Compound `CS(=O)(=O)N[C@H]1CC[C@H](CCN2CCC(c3cccc4c3CCO4)CC2)CC1` registered a melting point of 152 °C.

In turn, `CC(=O)Nc1nc2cnccc2s1` came in with a melting point of more than 212 °C.

In the case of `CCCCN(C1=C(O)C[C@@](CCc2cccc(O)c2)(C2CCCC2)OC1=O)c1ccccc1`, the melting point fell in the range of 64 to 66 °C.

`CCC(=O)Nc1cccc(O)c1`: the melting point lay in the range of 181 to 182 °C.

Consider `CC1(C)N=C(n2ccccc2=O)c2cc(C#N)ccc2O1`, for which the melting point is 115 to 116 °C.
